Laboratory results published in PubChem BioAssay AID330 (DTP/NCI, 2004).
“And” between values parts separate entries of the source, which are not always exact repeats. Equal entries are not always repeated. Inconclusive results and toxic doses are left out.

System: P388 leukemia ip, CD2F1 mice, survival T/C
Experiment: NCI In Vivo Anticancer Drug Screen. Data for tumor model P388 Leukemia (intraperitoneal) in CD2F1 (CDF1) mice
Conditions: endpoint: median survival time, higher = longer survival
How it was run: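 Mice carrying the transplanted tumor received test compound or vehicle. Survival was recorded in each group, and the value is the treated-group measurement divided by that of the vehicle-treated control group.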

Q: For CC(=O)[C@]1(O)Cc2c(O)c3c(c(O)c2[C@@H](OC2CC(N)C(O)C(C)O2)C1)C(=O)c1c(O)cccc1C3=O (stereo not given in full), which T/C (dose: 0.05 mg/kg/injection, schedule: Q01DX009 (ip), vehicle: saline) is on record?
A: 150 % of control

Q: What about the T/C (dose: 0.08 mg/kg/injection, schedule: Q01DX009 (ip), vehicle: saline) of the same molecule?
A: 159 % of control

Q: And the T/C (dose: 0.08 mg/kg/injection, schedule: Q04DX003 (ip), vehicle: water)?
A: 100 % of control and 97 % of control

Q: What about the T/C (dose: 0.1 mg/kg/injection, schedule: Q04DX003 (ip), vehicle: saline) of the same molecule?
A: 123 % of control

Q: And the T/C (dose: 0.14 mg/kg/injection, schedule: Q01DX009 (ip), vehicle: saline)?
A: 177 % of control

Q: What about the T/C (dose: 0.16 mg/kg/injection, schedule: Q04DX003 (ip), vehicle: water) of the same molecule?
A: 109 % of control and 87 % of control

Q: And the T/C (dose: 0.25 mg/kg/injection, schedule: Q04DX003 (ip), vehicle: water)?
A: 119 % of control and 94 % of control

Q: What about the T/C (dose: 0.3 mg/kg/injection, schedule: Q04DX003 (ip), vehicle: saline) of the same molecule?
A: 154 % of control

Q: And the T/C (dose: 0.32 mg/kg/injection, schedule: Q04DX003 (ip), vehicle: saline)?
A: 159 % of control

Q: What about the T/C (dose: 0.36 mg/kg/injection, schedule: Q04DX003 (ip), vehicle: saline) of the same molecule?
A: 160 % of control and 173 % of control

Q: What about the T/C (dose: 0.36 mg/kg/injection, schedule: Q04DX003 (ip), vehicle: water) of the same molecule?
A: 161 % of control

Q: And the T/C (dose: 0.39 mg/kg/injection, schedule: Q01DX001 (ip), vehicle: saline)?
A: 159 % of control

Q: And the T/C (dose: 0.39 mg/kg/injection, schedule: Q01DX009 (ip), vehicle: saline)?
A: 100 % of control

Q: What about the T/C (dose: 0.39 mg/kg/injection, schedule: Q04DX003 (ip), vehicle: saline) of the same molecule?
A: 163 % of control

Q: And the T/C (dose: 0.4 mg/kg/injection, schedule: Q04DX003 (ip), vehicle: saline)?
A: 154 % of control

Q: And the T/C (dose: 0.43 mg/kg/injection, schedule: Q01DX001 (ip), vehicle: saline)?
A: 152 % of control and 160 % of control

Q: And the T/C (dose: 0.43 mg/kg/injection, schedule: Q04DX003 (ip), vehicle: saline)?
A: 165 % of control

Q: And the T/C (dose: 0.5 mg/kg/injection, schedule: Q04DX003 (ip), vehicle: water)?
A: 116 % of control and 124 % of control

Q: What about the T/C (dose: 0.54 mg/kg/injection, schedule: Q04DX003 (ip), vehicle: saline) of the same molecule?
A: 161 % of control

Q: What about the T/C (dose: 0.6 mg/kg/injection, schedule: Q04DX003 (ip), vehicle: saline) of the same molecule?
A: 154 % of control and 168 % of control

Q: And the T/C (dose: 0.6 mg/kg/injection, schedule: Q04DX003 (ip), vehicle: water)?
A: 170 % of control

Q: What about the T/C (dose: 0.6 mg/kg/injection, schedule: Q04DX003 (oral), vehicle: saline) of the same molecule?
A: 112 % of control

Q: What about the T/C (dose: 0.64 mg/kg/injection, schedule: Q04DX003 (ip), vehicle: water) of the same molecule?
A: 109 % of control and 115 % of control and 274 % of control

Q: What about the T/C (dose: 0.65 mg/kg/injection, schedule: Q01DX001 (ip), vehicle: saline) of the same molecule?
A: 172 % of control

Q: What about the T/C (dose: 0.65 mg/kg/injection, schedule: Q04DX003 (ip), vehicle: saline) of the same molecule?
A: 172 % of control

Q: What about the T/C (dose: 0.72 mg/kg/injection, schedule: Q01DX001 (ip), vehicle: saline) of the same molecule?
A: 161 % of control and 180 % of control

Q: And the T/C (dose: 0.72 mg/kg/injection, schedule: Q04DX003 (ip), vehicle: saline)?
A: 167 % of control

Q: And the T/C (dose: 0.9 mg/kg/injection, schedule: Q04DX003 (ip), vehicle: saline)?
A: 160 % of control and 186 % of control

Q: And the T/C (dose: 1.0 mg/kg/injection, schedule: Q04DX003 (ip), vehicle: saline)?
A: 92 % of control and 94 % of control

Q: And the T/C (dose: 1.0 mg/kg/injection, schedule: Q04DX003 (ip), vehicle: water)?
A: 102 % of control

Q: What about the T/C (dose: 1.0 mg/kg/injection, schedule: Q04DX003 (oral), vehicle: saline) of the same molecule?
A: 110 % of control

Q: And the T/C (dose: 1.08 mg/kg/injection, schedule: Q01DX001 (ip), vehicle: saline)?
A: 95 % of control

Q: What about the T/C (dose: 1.08 mg/kg/injection, schedule: Q04DX003 (ip), vehicle: saline) of the same molecule?
A: 100 % of control

Q: What about the T/C (dose: 1.2 mg/kg/injection, schedule: Q01DX001 (ip), vehicle: saline) of the same molecule?
A: 105 % of control

Q: And the T/C (dose: 1.2 mg/kg/injection, schedule: Q01DX001 (oral), vehicle: saline)?
A: 110 % of control

Q: What about the T/C (dose: 1.2 mg/kg/injection, schedule: Q04DX003 (ip), vehicle: saline) of the same molecule?
A: 110 % of control

Q: And the T/C (dose: 1.5 mg/kg/injection, schedule: Q04DX003 (ip), vehicle: saline)?
A: 108 % of control

Q: What about the T/C (dose: 1.67 mg/kg/injection, schedule: Q04DX003 (oral), vehicle: saline) of the same molecule?
A: 115 % of control

Q: And the T/C (dose: 2.0 mg/kg/injection, schedule: Q01DX001 (oral), vehicle: saline)?
A: 102 % of control

Q: And the T/C (dose: 2.0 mg/kg/injection, schedule: Q04DX003 (ip), vehicle: water)?
A: 116 % of control

Q: What about the T/C (dose: 2.78 mg/kg/injection, schedule: Q04DX003 (oral), vehicle: saline) of the same molecule?
A: 106 % of control and 110 % of control

Q: And the T/C (dose: 3.2 mg/kg/injection, schedule: Q04DX003 (ip), vehicle: saline)?
A: 105 % of control

Q: And the T/C (dose: 3.33 mg/kg/injection, schedule: Q01DX001 (oral), vehicle: saline)?
A: 111 % of control and 116 % of control

Q: And the T/C (dose: 4.63 mg/kg/injection, schedule: Q04DX003 (oral), vehicle: saline)?
A: 113 % of control

Q: And the T/C (dose: 5.56 mg/kg/injection, schedule: Q01DX001 (oral), vehicle: saline)?
A: 114 % of control

Q: What about the T/C (dose: 6.4 mg/kg/injection, schedule: Q04DX003 (ip), vehicle: saline) of the same molecule?
A: 99 % of control

Q: What about the T/C (dose: 7.72 mg/kg/injection, schedule: Q04DX003 (oral), vehicle: saline) of the same molecule?
A: 166 % of control

Q: And the T/C (dose: 9.26 mg/kg/injection, schedule: Q01DX001 (oral), vehicle: saline)?
A: 152 % of control

Q: What about the T/C (dose: 12.9 mg/kg/injection, schedule: Q04DX003 (oral), vehicle: saline) of the same molecule?
A: 164 % of control

Q: And the T/C (dose: 6.25 micrograms/kg/injection, schedule: Q04DX003 (ip), vehicle: saline)?
A: 120 % of control

Q: And the T/C (dose: 15.0 micrograms/kg/injection, schedule: Q04DX003 (ip), vehicle: saline)?
A: 111 % of control

Q: What about the T/C (dose: 25.0 micrograms/kg/injection, schedule: Q04DX003 (ip), vehicle: saline) of the same molecule?
A: 116 % of control

Q: What about the T/C (dose: 31.0 micrograms/kg/injection, schedule: Q04DX003 (ip), vehicle: saline) of the same molecule?
A: 111 % of control

Q: And the T/C (dose: 50.0 micrograms/kg/injection, schedule: Q04DX003 (ip), vehicle: saline)?
A: 111 % of control

Q: What about the T/C (dose: 62.0 micrograms/kg/injection, schedule: Q04DX003 (ip), vehicle: saline) of the same molecule?
A: 107 % of control

Q: What about the T/C (dose: 125.0 micrograms/kg/injection, schedule: Q04DX003 (ip), vehicle: saline) of the same molecule?
A: 107 % of control

Q: What about the T/C (dose: 200.0 micrograms/kg/injection, schedule: Q04DX003 (ip), vehicle: saline) of the same molecule?
A: 119 % of control

Q: What about the T/C (dose: 500.0 micrograms/kg/injection, schedule: Q04DX003 (ip), vehicle: saline) of the same molecule?
A: 156 % of control

Q: What about the T/C (dose: 800.0 micrograms/kg/injection, schedule: Q04DX003 (ip), vehicle: saline) of the same molecule?
A: 122 % of control

Q: And the T/C (dose: 1000.0 micrograms/kg/injection, schedule: Q04DX003 (ip), vehicle: saline)?
A: 166 % of control

Q: And the T/C (dose: 2000.0 micrograms/kg/injection, schedule: Q04DX003 (ip), vehicle: saline)?
A: 88 % of control

Q: What about the T/C (dose: 3200.0 micrograms/kg/injection, schedule: Q04DX003 (ip), vehicle: saline) of the same molecule?
A: 103 % of control

Q: What about the T/C (dose: 6400.0 micrograms/kg/injection, schedule: Q04DX003 (ip), vehicle: saline) of the same molecule?
A: 116 % of control

Q: What does the source list for O=C(NCCO)c1ccc(O)cc1O?
A: T/C (dose: 60.0 mg/kg/injection, schedule: Q01DX005 (ip), vehicle: Klucel (hydroxypropylcellulose) (HPC)): 116 % of control; T/C (dose: 120.0 mg/kg/injection, schedule: Q01DX005 (ip), vehicle: Klucel (hydroxypropylcellulose) (HPC)): 120 % of control; T/C (dose: 240.0 mg/kg/injection, schedule: Q01DX005 (ip), vehicle: Klucel (hydroxypropylcellulose) (HPC)): 120 % of control

Q: What does the source list for CCOC(=O)COc1cc2c(cc1C(C)c1cc(OC)c(OC)c(OC)c1)OCO2 (stereo not given)?
A: T/C (dose: 50.0 mg/kg/injection, schedule: Q01DX005 (ip), vehicle: saline with Tween-80): 100 % of control; T/C (dose: 100.0 mg/kg/injection, schedule: Q01DX005 (ip), vehicle: saline with Tween-80): 105 % of control; T/C (dose: 200.0 mg/kg/injection, schedule: Q01DX005 (ip), vehicle: saline with Tween-80): 99 % of control

Q: Which T/C (dose: 50.0 mg/kg/injection, schedule: Q01DX009 (ip), vehicle: acetone) does the source give for COc1ccc(/C=C/c2nc(Nc3ccc(S(N)(=O)=O)cc3)c3ccccc3n2)cc1 here?
A: 102 % of control

Q: What about the T/C (dose: 100.0 mg/kg/injection, schedule: Q01DX009 (ip), vehicle: acetone) of the same molecule?
A: 99 % of control

Q: What about the T/C (dose: 200.0 mg/kg/injection, schedule: Q01DX009 (ip), vehicle: acetone) of the same molecule?
A: 96 % of control

Q: COC1(OC)C2CCC1C(Cl)=C2Cl was tested. Which T/C (dose: 3.13 mg/kg/injection, schedule: Q01DX009 (ip), vehicle: saline with Tween-80) did it give?
A: 93 % of control

Q: And the T/C (dose: 3.13 mg/kg/injection, schedule: Q01DX009 (ip), vehicle: saline)?
A: 108 % of control

Q: What about the T/C (dose: 6.25 mg/kg/injection, schedule: Q01DX009 (ip), vehicle: saline with Tween-80) of the same molecule?
A: 108 % of control

Q: And the T/C (dose: 6.25 mg/kg/injection, schedule: Q01DX009 (ip), vehicle: saline)?
A: 107 % of control

Q: And the T/C (dose: 12.5 mg/kg/injection, schedule: Q01DX009 (ip), vehicle: saline)?
A: 124 % of control

Q: How did the T/C (dose: 3.13 mg/kg/injection, schedule: Q01DX001 (ip), vehicle: saline) turn out when Cc1ccc(C2=C(Cl)C(=O)NC2=O)s1 was run?
A: 100 % of control

Q: And the T/C (dose: 6.25 mg/kg/injection, schedule: Q01DX001 (ip), vehicle: saline)?
A: 99 % of control

Q: And the T/C (dose: 12.5 mg/kg/injection, schedule: Q01DX001 (ip), vehicle: saline)?
A: 95 % of control
